Experimental data as given in PMC6556873, “Rapid Covalent-Probe Discovery by Electrophile-Fragment Screening” (Journal of the American Chemical Society, 2019).
Where two headings read alike, the source gives them in different places.

What was measured:
[1] = in vitro; design: species or system HB2, HEK293; conditions: human, ccd841 cells
[2] = in vitro; design: species or system CCD841, HEK293; conditions: human, hb2 cells, read-out: HB-2 Cells Viability (%)
[3] = molecular target: T1, PCAF (Homo sapiens, UniProt Q92831); design: Intact protein LC/MS covalent labelling, fragments in pools of five, 200 uM each, 4 °C; conditions: 24 h, 4 °C, pool of five; 200 µM; covalent
T1 construct: gene KAT2B

[4] = molecular target: T2, BSA (Bos taurus, UniProt P02769); design: Intact protein LC/MS covalent labelling, fragments in pools of five, 200 uM each, 4 °C; conditions: 24 h, 4 °C, pool of five; 200 µM; covalent
T2 construct: gene ALB

[5] = molecular target: T3, NNMT (hNNMT) (Homo sapiens, UniProt P40261); design: Intact protein LC/MS covalent labelling, fragments in pools of five, 200 uM each, 4 °C; conditions: 24 h, 4 °C, pool of five; 200 µM; covalent
T3 construct: wild type, N-terminal His6 tag kept (no cleavage described), E. coli, construct 31248 Da
T3 sequence (P40261 1-264): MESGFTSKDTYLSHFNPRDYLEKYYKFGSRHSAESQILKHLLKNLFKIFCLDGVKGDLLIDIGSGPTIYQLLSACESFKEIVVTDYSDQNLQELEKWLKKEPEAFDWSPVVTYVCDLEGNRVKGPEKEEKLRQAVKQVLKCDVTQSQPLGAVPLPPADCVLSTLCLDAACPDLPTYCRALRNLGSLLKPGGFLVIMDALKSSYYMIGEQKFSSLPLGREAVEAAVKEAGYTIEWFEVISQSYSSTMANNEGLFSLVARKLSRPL

[6] = molecular target: T4, OTUB2 (OTUB2A) (Homo sapiens, UniProt Q96DC9); design: Intact protein LC/MS covalent labelling, fragments in pools of five, 200 uM each, 4 °C; conditions: 24 h, 4 °C, pool of five; 200 µM; covalent
T4 construct: full length residues 1-234, E. coli BL21(DE3)-R3, His tag removed by TEV, construct 27312 Da
T4 sequence (Q96DC9 1-234): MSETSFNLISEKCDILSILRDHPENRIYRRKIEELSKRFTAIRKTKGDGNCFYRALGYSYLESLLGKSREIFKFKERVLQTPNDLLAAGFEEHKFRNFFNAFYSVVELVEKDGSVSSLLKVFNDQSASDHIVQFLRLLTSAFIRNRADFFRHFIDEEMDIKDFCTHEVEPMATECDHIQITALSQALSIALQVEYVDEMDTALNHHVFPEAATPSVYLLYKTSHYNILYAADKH

[7] = molecular target: T5, NUDT7 (Homo sapiens, UniProt P0C024); design: Intact protein LC/MS covalent labelling, fragments in pools of five, 200 uM each, 4 °C; conditions: 24 h, 4 °C, pool of five; 200 µM; covalent
T5 construct: residues 14-235, E. coli, pNIC28-Bsa4, N-terminal His6 tag removed by TEV, construct 26672 Da

[8] = in vitro; design: species or system HB2, CCD841; conditions: human, hek293 cells

T1 sequence (Q92831 whole entry, the tested form may be a part): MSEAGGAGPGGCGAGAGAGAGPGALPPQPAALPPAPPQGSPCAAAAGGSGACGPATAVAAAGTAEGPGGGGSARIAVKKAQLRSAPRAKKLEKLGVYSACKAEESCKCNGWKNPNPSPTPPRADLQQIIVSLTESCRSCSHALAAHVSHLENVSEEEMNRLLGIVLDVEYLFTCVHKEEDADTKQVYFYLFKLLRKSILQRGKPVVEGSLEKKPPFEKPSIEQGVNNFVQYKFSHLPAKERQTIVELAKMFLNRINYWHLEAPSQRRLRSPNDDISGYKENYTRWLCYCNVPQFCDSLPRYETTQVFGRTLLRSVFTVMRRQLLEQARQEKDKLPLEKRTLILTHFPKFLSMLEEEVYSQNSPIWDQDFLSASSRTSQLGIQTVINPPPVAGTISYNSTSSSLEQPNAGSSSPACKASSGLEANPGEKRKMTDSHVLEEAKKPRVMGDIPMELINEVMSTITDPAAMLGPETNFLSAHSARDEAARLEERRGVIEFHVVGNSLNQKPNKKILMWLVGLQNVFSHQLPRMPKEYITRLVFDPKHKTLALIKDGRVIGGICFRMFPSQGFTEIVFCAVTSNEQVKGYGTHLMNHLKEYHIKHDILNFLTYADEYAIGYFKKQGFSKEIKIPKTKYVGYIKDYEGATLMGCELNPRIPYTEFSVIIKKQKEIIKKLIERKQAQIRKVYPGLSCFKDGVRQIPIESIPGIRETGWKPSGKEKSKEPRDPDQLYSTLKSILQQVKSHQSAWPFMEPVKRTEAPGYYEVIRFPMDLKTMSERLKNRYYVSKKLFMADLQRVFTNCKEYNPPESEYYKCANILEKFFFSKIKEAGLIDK
T5 sequence (P0C024 14-235): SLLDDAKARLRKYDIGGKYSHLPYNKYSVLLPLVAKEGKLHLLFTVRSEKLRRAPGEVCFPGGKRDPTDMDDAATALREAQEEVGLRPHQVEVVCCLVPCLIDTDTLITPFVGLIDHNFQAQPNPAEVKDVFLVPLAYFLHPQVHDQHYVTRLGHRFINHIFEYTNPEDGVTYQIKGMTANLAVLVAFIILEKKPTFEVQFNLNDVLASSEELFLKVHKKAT
T2 sequence (P02769 whole entry, the tested form may be a part): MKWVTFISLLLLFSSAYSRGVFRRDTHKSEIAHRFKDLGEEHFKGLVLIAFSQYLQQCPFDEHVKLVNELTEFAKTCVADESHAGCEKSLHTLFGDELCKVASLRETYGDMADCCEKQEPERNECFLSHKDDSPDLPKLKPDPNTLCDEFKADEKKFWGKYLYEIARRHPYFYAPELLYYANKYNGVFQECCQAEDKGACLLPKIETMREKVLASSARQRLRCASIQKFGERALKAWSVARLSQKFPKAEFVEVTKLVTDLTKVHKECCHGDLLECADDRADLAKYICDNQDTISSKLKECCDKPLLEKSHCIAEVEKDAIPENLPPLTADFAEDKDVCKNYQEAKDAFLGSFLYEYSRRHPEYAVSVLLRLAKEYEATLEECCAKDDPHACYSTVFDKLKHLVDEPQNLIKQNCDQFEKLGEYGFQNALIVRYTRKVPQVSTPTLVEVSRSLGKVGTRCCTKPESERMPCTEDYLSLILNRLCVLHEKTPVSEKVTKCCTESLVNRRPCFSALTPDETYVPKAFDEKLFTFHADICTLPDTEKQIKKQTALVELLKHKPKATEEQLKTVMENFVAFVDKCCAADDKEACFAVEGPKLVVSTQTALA

Structure (SMILES) | viability at 48 h, 10 µM [1] | viability at 48 h, 10 µM [2] | PCAF [3] | BSA [4] | NNMT [5] | OTUB2 [6] | NUDT7 [7] | viability at 48 h, 10 µM [8]
C=CC(=O)N1CCC(CS(C)(=O)=O)CC1 [PCM-0102651] | 108% | 105% | 0 | 0 | 0 | 0 | 0 | 100%
O=C(CCl)Nc1ccccc1N1CCCC1=O [PCM-0102375] | 78% | 79.6% | 0 | 0 | 0 | 0.13 | 0 | 51.9%
C=CC(=O)N1CCC(C(=O)[O-])CC1.[Na+] [PCM-0102613] | 125% | 98.2% | 0 | 0 | 0 | 0 | 0 | 114%
C=CC(=O)N1CCc2ccccc21 [PCM-0102732] | 105% | 93.4% | 0 | 0 | 0.22 | 0 | 0 | 72.5%
O=C(CCl)NC(=O)Nc1ccc2c(c1)OCCCO2 [PCM-0102910] | 67.2% | 67.5% | 0 | 0 | 0.69 | 0 | 0 | 81%
Cc1cccc(C(=O)NNC(=O)CCl)c1 [PCM-0102737] | 80% | 82.1% | 0 | 0 | 0 | 0.54 | 0 | 83.7%
C=CC(=O)N1CCCC(Cc2nnc3ccccn23)C1 (centres unmarked) [PCM-0102909] | 87.9% | 101% | 0 | 0 | 0 | 0 | 0 | 108%
CN(CC(=O)N1CCOCC1)C(=O)CCl [PCM-0102743] | 99% | 101% | 0 | 0 | 0 | 0 | 0 | 97.6%
Cc1ccc(NC(=O)CCl)cc1C [PCM-0102339] | 34.9% | 5.2% | 0 | 0 | 0.7 | 0.82 | 0.18 | 1.5%
C=CC(=O)N1CCC(C(=O)c2cccs2)CC1 [PCM-0102989] | 97.9% | 97.7% | 0 | 0 | 0 | 0 | 0 | 102%
O=C(CCl)N1CCN(S(=O)(=O)c2cccs2)CC1 [PCM-0102241] | 49.1% | 8.9% | 0 | 0 | 0 | 0 | 0.12 | 8.9%
C#CCN1CCN(C(=O)CCl)CC1.Cl [PCM-0102811] | 84.9% | 92.5% | 0 | 0 | 0 | 0 | 0 | 72.2%
C=CC(=O)N1CCCCC1C(=O)O (centres unmarked) [PCM-0102507] | 109% | 101% | 0 | 0 | 0 | 0 | 0 | 95.6%
O=C(CCl)N=c1sccn1Cc1ccccc1 [PCM-0102469] | 5.2% | 42.3% | 0 | 0 | 0.25 | 0.11 | 0 | 7%
O=C(CCl)NC1c2ccccc2-c2ccccc21 [PCM-0102802] | 82.7% | 61.8% | 0 | 0 | 0 | 0.16 | 0.19 | 58.9%
C=CC(=O)NCC1CCCc2sc(C)nc21 (centres unmarked) [PCM-0102952] | 114% | 97.6% | 0 | 0 | 0 | 0 | 0 | 95.2%
C=CC(=O)Nc1ccccc1C(=O)OC [PCM-0102967] | 81% | 90.2% | 0 | 0 | 0 | 0 | 0.51 | 68.8%
C=CC(=O)NCC1CCC2(CCOCC2)C1O (centres unmarked) [PCM-0102569] | 110% | 110% | 0 | 0 | 0.36 | 0 | 0.11 | 84.7%
Cl.O=C(CCl)Nc1ccc(Cl)cn1 [PCM-0103036] | 96.4% | 98.5% | 0 | 0.19 | 0.19 | 0 | 0 | 113%
CN(Cc1ccc(Br)cc1)C(=O)CCl [PCM-0102401] | 32.1% | 6.8% | 0 | 0 | 0.53 | 0 | 0.58 | 7.3%
N#Cc1cccc(C(=O)NNC(=O)CCl)c1 [PCM-0102857] | 82.6% | 103% | 0 | 0 | 0 | 0.41 | 0 | 102%
CC(=O)NNC(=O)CCl [PCM-0102310] | 90.3% | 96.1% | 0 | 0 | 0 | 0.18 | 0 | 84.1%
C=CC(=O)Nc1cc(CC(C)(C)C)nn1C [PCM-0102686] | 144% | 102% | 0 | 0 | 0.12 | 0 | 0.15 | 75.3%
O=C(CCl)NCC1CCC1 [PCM-0103065] | 108% | 104% | 0 | 0 | 0 | 0 | 0 | 104%
COC(=O)C1CCN(C(=O)CCl)CC1 [PCM-0102978] | 110% | 100% | 0 | 0 | 0 | 0 | 0 | 99.4%
C=CC(=O)N1CC=C(C(F)(F)F)CC1 [PCM-0102685] | 105% | 103% | 0 | 0 | 0.17 | 0 | 0 | 98%
O=C(CCl)NC(=O)NCc1cccs1 [PCM-0102753] | 71.1% | 61.5% | 0 | 0 | 0.55 | 0.23 | 0 | 55.8%
Cc1ccccc1CN1CCN(C(=O)CCl)CC1.Cl [PCM-0102876] | 69.2% | 31.1% | 0 | 0 | 0 | 0 | 0 | 38.1%
